The source of these data is paper PMC12175894 (Science Advances, 2025).

Each structure is given as a SMILES string.

This experiment addresses adrenergic α2C (Homo sapiens, UniProt P18825). Kind of experiment: Radioligand displacement, [3H]RX821002. For orientation: In a radioligand displacement assay an active substance lowers the binding of a labelled ligand.

adrenergic α2C, sequence (P18825 whole entry): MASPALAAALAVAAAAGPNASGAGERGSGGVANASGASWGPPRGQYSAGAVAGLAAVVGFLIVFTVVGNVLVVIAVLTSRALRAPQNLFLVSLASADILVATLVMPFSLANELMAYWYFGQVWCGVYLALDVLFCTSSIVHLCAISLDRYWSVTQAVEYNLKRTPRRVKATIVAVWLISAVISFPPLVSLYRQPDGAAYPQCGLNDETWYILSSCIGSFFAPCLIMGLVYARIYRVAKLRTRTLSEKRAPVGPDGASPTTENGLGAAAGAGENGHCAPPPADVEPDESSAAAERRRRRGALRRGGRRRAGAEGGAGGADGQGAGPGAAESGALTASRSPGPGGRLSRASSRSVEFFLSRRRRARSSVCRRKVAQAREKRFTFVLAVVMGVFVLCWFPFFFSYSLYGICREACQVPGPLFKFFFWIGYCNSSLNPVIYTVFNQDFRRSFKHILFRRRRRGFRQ

One may read the Ki as a measure of affinity in units of concentration, obtained from inhibition or displacement. Lower therefore signals a stronger hold on the target. Consider `COc1ccccc1OCCNCCCOc1ccc2c(c1)NC(=O)CO2` [ST171], for which the Ki is 28 ± 12 nM (Ki [nM ± SD]) and 25.9 nM (pKi).
